Reference: US20260035367A1 (Celgene Corporation, priority 2021, published 2026)
Where two headings read alike, the source gives them in different places.

Key:
[1] = target: T1, Recombinant human PKC-delta (His-tagged 345-676) (Homo sapiens, UniProt Q05655); assay: PKC-delta inhibition assay (HTRF KinEASE kit); format: biochemical; conditions: ratio, PKC-theta vs PKC-delta HTRF; for PKC-theta/PKC-delta selectivity (binned): binned A to G
T1 construct: PKC-delta (His-tagged 345-676); His

[2] = target: T2, Recombinant human PKC-theta (His-tagged 362-706) (Homo sapiens, UniProt Q04759); assay: PKC-theta inhibition assay (HTRF KinEASE kit); format: biochemical; conditions: ATP 6.5 μM, STK substrate 525 nM
T2 construct: Recombinant human PKC-theta (His-tagged 362-706); His
T2 sequence (Q04759 362-706): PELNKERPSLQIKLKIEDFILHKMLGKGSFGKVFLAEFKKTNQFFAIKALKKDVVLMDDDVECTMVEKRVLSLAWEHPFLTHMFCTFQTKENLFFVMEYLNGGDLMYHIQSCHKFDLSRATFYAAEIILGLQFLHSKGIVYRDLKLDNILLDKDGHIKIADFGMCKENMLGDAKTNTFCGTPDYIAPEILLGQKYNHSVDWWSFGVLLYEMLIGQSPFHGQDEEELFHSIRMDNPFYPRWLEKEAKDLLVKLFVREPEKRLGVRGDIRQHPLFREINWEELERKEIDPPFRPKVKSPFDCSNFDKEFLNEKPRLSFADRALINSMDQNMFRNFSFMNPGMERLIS
Procedure, shortened: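 IC50 values were from 4-parameter logistic fits of percent inhibition, based on acceptor/donor HTRF ratios over 10 semi-log compound doses. Kinase reactions, started with substrate plus ATP, ran 30 min at 25 °C in buffer supplemented with 10 mM MgCl2, 1 mM DTT and 0.1% Tween 20; detection lasted 2 h.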

[3] = test system: IL-2 secretion by human effector memory T cells (TEM); assay: Effector memory T cells IL-2 release assay (CD3/CD28 stimulation, HTRF IL-2 detection); format: cell-based; conditions: Homo sapiens, T-cell, 24 h
Procedure, shortened: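 Human effector memory T cells from healthy-donor buffy coats were exposed in triplicate to ten semi-log doses of compound in 0.1% DMSO. The cells were stimulated and incubated 24 h at 37 °C. Secreted IL-2 in the supernatant was measured by HTRF.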

[4] = binned A to H, read-out: PKC-theta HTRF pIC50 (binned) (converted)
[5] = read-out: PKC-theta HTRF pIC50 (converted)
[6] = binned A to G, read-out: PKC-theta IL2 pIC50 (binned) (converted)
[7] = read-out: PKC-theta IL2 pIC50 (converted)

T1 sequence (Q05655 345-676): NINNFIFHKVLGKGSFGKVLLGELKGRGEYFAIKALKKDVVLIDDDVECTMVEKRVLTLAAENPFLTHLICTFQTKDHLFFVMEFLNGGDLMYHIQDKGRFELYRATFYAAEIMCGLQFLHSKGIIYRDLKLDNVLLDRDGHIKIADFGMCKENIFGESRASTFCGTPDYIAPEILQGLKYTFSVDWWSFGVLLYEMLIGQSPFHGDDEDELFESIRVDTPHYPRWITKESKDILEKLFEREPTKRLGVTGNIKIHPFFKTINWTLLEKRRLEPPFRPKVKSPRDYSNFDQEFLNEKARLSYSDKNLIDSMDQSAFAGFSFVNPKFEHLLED

| Compound | PKC-theta/PKC-delta selectivity [1] | PKC-theta/PKC-delta selectivity (binned) [1] | IC50 [2, 4] [nM] | IC50 [2, 5] [nM] | IC50 [3, 6] [nM] | IC50 [3, 7] [nM] |
| --- | --- | --- | --- | --- | --- | --- |
| O=c1[nH]c2nccc(-c3cc(F)cc(N4CCNCC4)c3)c2[nH]1 [Example 7] | 2 | F (a ratio of between 1 and 5) | 100 to 316 | 100 | > 1000 | 2510 |
| CC[C@]1(C)C(=O)Nc2nccc(-c3cc(C(F)(F)F)cc(N4CCNC[C@H]4C)n3)c21 (single isomer, unassigned) [Example 197] | 14 | D (a ratio of between 10 and 20) | 0.316 to 1 | 1 | 10 to 31.6 | 15.8 |
| CCC1(C)C(=O)Nc2nccc(-c3cc(F)cc(N4CCNCC4)c3)c21 (stereo not drawn) [Example 33] | 2 | F (a ratio of between 1 and 5) | 31.6 to 100 | 50.1 | 316 to 1000 | 794 |
| CC1(C)C(=O)Nc2nccc(-c3cc(N4CCNCC4)cc(C(F)(F)F)c3)c21 [Example 37] | 5 | F (a ratio of between 1 and 5) | 31.6 to 100 | 100 | > 1000 | 1260 |
| CC1(C)CN(c2cc(Cl)cc(-c3ccnc4c3[C@](C)(O)C(=O)N4)n2)CCN1 (single isomer, unassigned) [Example 133] | 10 | D (a ratio of between 10 and 20) | 1 to 3.16 | 2.51 | 31.6 to 100 | 50.1 |
| Cc1cc(-c2ccnc3c2C(C)(C)C(=O)N3)cc(N2CCNCC2)c1 [Example 61] | 6 | E (a ratio of between 5 and 10) | 31.6 to 100 | 50.1 | 316 to 1000 | 794 |
| CC(c1cccc(-c2ccnc3[nH]c(=O)[nH]c23)c1)N(C)C (stereo not drawn) [Example 1] | 1 | F (a ratio of between 1 and 5) | 316 to 1000 | 501 | > 1000 | 10000 |
| C[C@@]1(O)C(=O)Nc2nccc(-c3cc(C(F)(F)F)cc(N4CC[C@H]5OCCN[C@@H]5C4)n3)c21 (single isomer, unassigned) [Example 97] | 21 | C (a ratio of between 20 and 30) | 100 to 316 | 158 | > 1000 | 3980 |
| CC(F)(F)c1cc(-c2ccnc3c2C(C)(C)C(=O)N3)nc(N2CCCNCC2)c1 [Example 203] | 14 | D (a ratio of between 10 and 20) | 3.16 to 10 | 6.31 | 31.6 to 100 | 100 |
| CC[C@]1(C)C(=O)Nc2nccc(-c3cc(C(C)(F)F)cc(N4CCN[C@@H](C)C4)n3)c21 (single isomer, unassigned) [Example 199] | 16 | D (a ratio of between 10 and 20) | 1 to 3.16 | 1.58 | 10 to 31.6 | 25.1 |
| CC[C@@H]1CNCCN1c1cc(C(F)(F)F)cc(-c2ccnc3c2[C@](C)(O)C(=O)N3)n1 (single isomer, unassigned) [Example 129] | 3 | F (a ratio of between 1 and 5) | 0.316 to 1 | 0.501 | 3.16 to 10 | 3.98 |
| CC1(C)C(=O)Nc2nccc(-c3cc(C(F)(F)F)cc(N4CCNC[C@H]4CO)n3)c21 [Example 161] | 12 | D (a ratio of between 10 and 20) | 1 to 3.16 | 2.51 | 31.6 to 100 | 50.1 |
